Among the test systems are 786-0; A498; A549; EKVX; HCT-116; HCT-15; HOP-92; K562; MCF7; MDA-MB-435; NCI-H226; NCI-H460; NCI-H522; OVCAR-5; SF-268; SF-295; SNB-75; UO-31; HOP-62.
Holding throughout (assay): NCI tumour cell line growth inhibition, 48 h

The values that follow come from ChEMBL document CHEMBL1201862, “PubChem BioAssay data set” (2004).

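Results reflect a 48-hour exposure of cells in 96-well plates to compound at five concentrations. GI50: concentration for 50% inhibition of growth.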 Calls of active or inactive are those of the source. Cut-off read from the data, not from the text of the source: active = GI50 up to about 1.1 µM and inactive = higher.

Take `Cc1cc2c(cc1C)C(=O)C1(C2)Cc2cc3c(cc2C1=O)CCC3` (stereo not given): the GI50 in the assay with 786-0 was > 100 µM (inactive); in the assay on A498, > 100 µM (inactive); in the assay with A549, > 100 µM (inactive); in the assay on EKVX, > 100 µM (inactive); in the assay on HCT-116, > 100 µM (inactive); in the assay with HCT-15, greater than 100 µM. Besides, the GI50 in the assay on HOP-92, in the assay with K562, in the assay on MCF7, with MDA-MB-435, in the assay on NCI-H226 and with NCI-H460 was > 100 µM (inactive) in each case. In addition, the GI50 in the assay on NCI-H522, in the assay on OVCAR-5, with SF-268, with SF-295, in the assay with SNB-75 and in the assay on UO-31 was > 100 µM (inactive) throughout.
In the case of `O=c1c2cc(Cl)ccc2[nH]c2cc(O)cc(O)c12`, the GI50 is > 10 µM (inactive) in the assay with 786-0; > 10 µM (inactive) in the assay with A498; > 10 µM (inactive) in the assay on A549; 4.12 µM (inactive) in the assay with EKVX; > 10 µM (inactive) in the assay with HCT-116; greater than 10 µM in the assay with HCT-15. In addition, the GI50 in the assay with HOP-62 was > 10 µM (inactive); in the assay with HOP-92, > 10 µM (inactive); with K562, > 10 µM (inactive); with MCF7, > 10 µM (inactive); in the assay on MDA-MB-435 it was > 10 µM (inactive); in the assay on NCI-H226 it was 1.61 µM (inactive). In addition, the GI50 was > 10 µM (inactive) in the assay with NCI-H460; > 10 µM (inactive) in the assay with NCI-H522; > 10 µM (inactive) in the assay with OVCAR-5; > 10 µM (inactive) in the assay with SF-268; > 10 µM (inactive) with SF-295; 2.95 µM (inactive) in the assay with SNB-75.
Take `O=C1c2ccccc2C(=O)N1n1c(Cc2ccc([N+](=O)[O-])cc2)n[nH]c1=O`: the GI50 in the assay on 786-0 is > 100 µM (inactive); in the assay with A498, > 100 µM (inactive); in the assay with A549 it was > 100 µM (inactive); with HCT-116, > 100 µM (inactive); with HCT-15 it was greater than 100 µM; in the assay with HOP-62 it was > 100 µM (inactive). Also, the GI50 in the assay with HOP-92, with K562, in the assay with MCF7, in the assay with MDA-MB-435, with NCI-H226 and with NCI-H460 was > 100 µM (inactive) in each case. The GI50 with NCI-H522, with OVCAR-5, in the assay on SF-268, in the assay on SF-295, in the assay with SNB-75 and with UO-31 was > 100 µM (inactive) in each case.
With `CCCCc1ccc2[n+](c1)C(C(=O)OCC)=PC2` (stereo not given), the GI50 with 786-0 was 72.1 µM (inactive); in the assay on A498 it was > 100 µM (inactive); in the assay on A549, > 100 µM (inactive); in the assay with EKVX it was > 100 µM (inactive); in the assay with HCT-116 it was > 100 µM (inactive); in the assay with HCT-15, 39.6 µM. In addition, the GI50 in the assay with HOP-62 is > 100 µM (inactive); in the assay on HOP-92, > 100 µM (inactive); in the assay on MCF7 it was 30.7 µM (inactive); in the assay with MDA-MB-435 it was > 100 µM (inactive); in the assay on NCI-H460 it was > 100 µM (inactive); with NCI-H522 it was 54.2 µM (inactive). Moreover, the GI50 was > 100 µM (inactive) in the assay with OVCAR-5, > 100 µM (inactive) with SF-268, > 100 µM (inactive) in the assay with SF-295 and 44.7 µM (inactive) in the assay on SNB-75.
